Legend:
[1] = tested on: selected CRGs (MPK3, WRKY22, WRKY29, WRKY33, WRKY53); assay: Semi-quantitative RT-PCR of selected CRGs after chitooctaose; format: in vivo, Arabidopsis thaliana; settings: chitooctaose or water for 30 minutes; mutant vs wild type
Procedure: To test whether non-leguminous LysM RLKs may be involved in the perception of chitooligosaccharides and the subsequent induction of downstream genes that have been implicated in fungal defense, T-DNA insertion mutants were obtained for all five LysM RLK genes (i.e., At1g51940, At2g23770, At2g33580, At3g01840, and At3g21630) in Arabidopsis. The gene At3g21630 (SEQ ID. No. 3) is also termed AtLYK1 or AtLysM RLK1. Homozygous mutants were then treated with a purified chitooligosaccharide (chitooctaose) and the expression levels of known CRGs, such as MPK3 (At3g45640, SEQ ID. No. 8), WRKY22 (At4g01250, SEQ ID. No. 9), WRKY29 (At4g23550, SEQ ID. No. 10), WRKY33 (At2g38470, SEQ ID. No. 11), and WRKY53 (At4g23810, SEQ ID. No. 12), were measured.
More particularly, Arabidopsis seedlings were grown hydroponically as described by Ramonell et al., 2005. […]
Total RNA was isolated using the Trizol Reagent according to the manufacturer's instructions (Invitrogen, Carlsbad, Calif.). […] For semi-quantitative RT-PCR or quantitative 17 PCR, cDNA was synthesized using M-MLV reverse transcriptase according to the manufacturer's instructions (Promega, Madison, Wis., USA). […]
Both the mutant (Mu) and wildtype (WT) plants were treated with purified chitooctaose or water (as a control) for 30 minutes and gene expression of the selected CRGs was detected using semi-quantitative RT-PCR. […]

[2] = tested on: AtLysM RLK1 mutant gene expression (chitooligosaccharide-responsive genes, CRGs); assay: Affymetrix ATH1 whole genome array, response to chitooctaose in the AtLysM RLK1 mutant; format: in vivo, Arabidopsis thaliana
Procedure: (§1) More particularly, Arabidopsis seedlings were grown hydroponically as described by Ramonell et al., 2005. Fourteen-day old seedlings were treated with chitooctaose (Sigma, St. Louis, Mo., USA) at a concentration of 1 μM or with distilled water (as a control) for 30 minutes. To test flagellin-responsive genes, 14-day old seedlings were also treated with the flagellinderived flg22 peptide (dissolved in dimethyl sulfoxide, DMSO) at a final concentration of 10 μM or with an equivalent amount of DMSO (as a control) for 30 minutes. To test other defense pathways, Arabidopsis seedlings were also treated for 24 hours with 5 mM SA, 100 μM MeJA, and 0.5 mM ACC (all obtained from Sigma, St. Louis, Mo., USA) and dissolved in 0.1% ethanol. The control plants were similarly treated with an equivalent amount of ethanol. After treatment, the seedlings were collected and frozen in liquid nitrogen for RNA isolation.
(§2) Total RNA was isolated using the Trizol Reagent according to the manufacturer's instructions (Invitrogen, Carlsbad, Calif.). The isolated RNA was further purified using Qiagen RNeasy Mini Columns according to the manufacturer's instruction (Qiagen, Valencia, Calif., USA) and treated with Turbo™ DNase (Ambion, Austin, Tex., USA). For semi-quantitative RT-PCR or quantitative 17 PCR, cDNA was synthesized using M-MLV reverse transcriptase according to the manufacturer's instructions (Promega, Madison, Wis., USA).
The AtLysM RLK1 insertion mutant (096F09) used in the current work was generated in the context of the GABI-Kat program and provided by Bernd Weisshaar (MPI for Plant Breeding Research, Cologne, Germany). See Shibuya et al., 2001. The homozygous plants were identified by genotyping using the following gene-specific primers: […]
(§3) Gene expression profiles in the AtLysM RLK1 mutant in response to chitooctaose were studied using the Affymetrix Arabidopsis Whole Genome Array ATH1 (with ˜22000 genes), with wild-type plants as a control. […] A row represents a gene and each column represents a sample. WT-8mer=wild-type Col-0 treated with chitooctaose; WT-water=wild-type Col-0 treated with distilled water; Mu-water=the AtLysM RLK1 mutant treated with distilled water; Mu-8mer=the AtLysM RLK1 mutant treated with chitooctaose. The color bar below the cluster picture: the red color indicates the expression level of a gene is above the mean expression of the gene across all samples; the green color indicates expression lower than the mean.

[3] = tested on: wild-type Col-0 gene expression (chitooligosaccharide-responsive genes, CRGs); assay: Affymetrix ATH1 whole genome array, response to chitooctaose in wild-type plants; format: in vivo, Arabidopsis thaliana
Procedure: as §1, §2, §3

[4] = tested on: selected CRGs (LjMPK3, LjWRKY22, LjWRKY33, LjWRKY53); assay: Semi-quantitative RT-PCR of selected CRGs in Lotus japonicus Nod signal receptor mutants; format: in vivo; settings: chitooctaose 1 μM, 30 minutes; wild type Gifu as comparison
Procedure: PCR reactions were conducted using Taq polymerase (Promega, Madison, Wis., USA) under the following conditions: 94° C., 3 minutes; 94° C., 30 seconds; 55° C., 30 seconds; 72° C., 1.5 minutes; 25 cycles; 72° C., 3 minutes. The corresponding CRG genes in Lotus japonicus were identified by blasting the cDNA sequences of the above Arabidopsis CRGs (and also actin-2) against the TIGR Lotus japonicus Gene Index. The closest hits were chosen and arbitrarily named after their Arabidopsis counterparts with the prefix Lj (standing for Lotus japonicus). The following primer pairs were designed to detect these genes:
LjActin-2 was used as an internal control.
LysM RLK NFR1 and NFR5 Nod signal receptors specifically recognize a lipochitin molecule with a back-bone of 4-5 units of N-acetyl-D-glucosamine. For review, see Stacey et al. 2006. […] In more details, both the wild type (Gifu) and the Nod signal receptor mutants nfr1-1 and nfr5-1 were treated with chitooctaose for 30 minutes at a concentration of 1 μM or with water (as a control). The selected CRGS were detected using semi-quantitative RT-PCR. LjActin-2 was used as an internal control.

[5] = tested on: Arabidopsis LysM RLK genes; assay: DNA microarray (Affymetrix 24K chip) of plants sprayed with chitin; format: in vivo, Arabidopsis thaliana; settings: leaves sprayed with chitin (100 μM)+0.2% Tween-20
Procedure: A total of five LysM receptor-like kinase genes were identified in Arabidopsis from the studies described in Example 1. The Genbank numbers of these five genes are AtLYK1 (GenBank accession #At3g21630), AtLYK2 (GenBank accession # At3g01840), AtLYK3 (GenBank accession #At1g51940), AtLYK4 (GenBank accession # At2g23770), AtLYK5 (GenBank accession #At2g33580), and, which are designated as SEQ ID. Nos. 3-7, respectively. A DNA microarray experiment was performed by treating Arabidopsis plants with chitin. Leaves were treated by spraying with chitin (100 μM)+0.2% Tween-20. The Affymetrix 24K Arabidopsis genome chip was utilized according to the manufacturer's instructions for this test. […] The data implicate these genes in plant chitin response.

soybean LysM RLK genes = assay: Expression analysis of GmLysM receptor-like kinases in chitin-treated leaves; format: in vivo; settings: leaves sprayed with chitin (100 μM)+0.2% Tween-20
Procedure: Soybean genotypes used for mapping of soybean QTLs for white mold resistance included Corsoy 79 and Dassel. […] Finally, as was the case with Arabidopsis, some of the soybean LysM RLK genes are induced upon treatment of soybean with chitin, as confirmed by the results shown in FIG. 20. Leaves were treated by spraying with chitin (100 μM)+0.2% Tween-20.

transcription factors = assay: qRT-PCR of transcription factors after chitin treatment; design: species or system Arabidopsis thaliana; settings: in vivo
Procedure: Based on the genome-wide gene expression studies using microarrays, quantitative reverse transcriptase-polymerase chain reaction (qRT-PCR) was conducted to identify over 120 different transcription factors in Arabidopsis thaliana whose expression is enhanced by chitin treatment. Many of these transcription factors are known to be involved in fungal pathogen response. […] Each of these transcription factors is a potential target for genetic manipulation in order to enhance disease resistance. The results of this study are described in greater details in Libault et al., 2007, which is hereby expressly incorporated by reference.

AtLysM RLK1 gene = assay: RT-PCR of AtLysM RLK1 gene expression after elicitor treatment; format: in vivo, Arabidopsis thaliana; settings: seedlings, chitooctaose 1 μM, 30 minutes
Procedure: as §1
These two primers were also used to detect the expression of the AtLysM RLK1 gene via RT-PCR. The other primers used to detect the transcript 5′ of the insertion site were as follows:
The expression pattern of the AtLysM RLK1 gene was also studied. […]

Alternaria brassicicola = assay: Pretreatment before inoculation with Alternaria brassicicola (lesion size, spore production); format: in vivo, Arabidopsis thaliana
Description: The susceptibility appeared to be less than that observed in NahG plants, which express salicylate hydrolase, preventing the accumulation of salicylic acid, and are therefore very susceptible to the fungal pathogen (FIG. 13A). […] Arrows indicate sites where conidiophores are forming. All photographs were taken six days after inoculation. Bar=0.1 mm. 4-week-old plants were also inoculated with the necrotrophic fungus Alternaria brassicicola. Three days after inoculation, the mutant developed slightly bigger lesions than the wild-type plants, as measured by average diameter of the lesions (FIGS. 13C and 13D). In agreement with this, the mutant plants also produced more spores per lesion than the wild-type plants (FIG. 13E).
(§4) To test the specificity of AtLysM RLK1 in fungal disease resistance, the response of the mutant to the bacterial pathogen Pseudomonas syringae pv. Tomato DC3000 was also examined. […] WT=wild-type Col-0; Mu=the AtLysM RLK1 mutant. CSC=crab shell chitin, 8mer=chitooctaose, and water=distilled water. Empty columns=WT Col-0 and solid black columns=the AtLysM RLK1 mutant. Asterisks indicate statistically significant differences between the mutant and wild-type plants (P<0.05). Error bars=standard error. Each experiment was repeated at least twice with similar results.

[6] = tested on: Pseudomonas syringae pv. tomato DC3000; assay: Pretreatment before inoculation with Pseudomonas syringae pv. tomato DC3000 (bacterial growth); format: in vivo, Arabidopsis thaliana
Description: as §4

[7] = pretreatment of AtLysM RLK1 mutant plants
[8] = pretreatment of wild-type plants

## CC(=O)N[C@H]1[C@H](O[C@H]2[C@H](O)[C@@H](NC(C)=O)[C@H](O[C@H]3[C@H](O)[C@@H](NC(C)=O)[C@H](O[C@H]4[C@H](O)[C@@H](NC(C)=O)C(O)O[C@@H]4CO)O[C@@H]3CO)O[C@@H]2CO)O[C@H](CO)[C@@H](O[C@@H]2O[C@H](CO)[C@@H](O[C@@H]3O[C@H](CO)[C@@H](O[C@@H]4O[C@H](CO)[C@@H](O[C@@H]5O[C@H](CO)[C@@H](O)[C@H](O)[C@H]5NC(C)=O)[C@H](O)[C@H]4NC(C)=O)[C@H](O)[C@H]3NC(C)=O)[C@H](O)[C@H]2NC(C)=O)[C@@H]1O (some centres unmarked) [chitooctaose]
[1]
  induction of the selected CRGs in the AtLysM RLK1 insertion mutant: almost completely blocked the induction
[2]; AtLysM RLK1 mutant
  number of down-regulated genes in the mutant: 17 genes
  number of up-regulated genes in the mutant: 16 genes
[2]; out of 909, AtLysM RLK1 mutant
  number of genes responsive in the mutant: 33 genes
[3]; 1.5 fold, P<0.05
  number of down-regulated genes in wild-type plants: 227 genes
  number of up-regulated genes in wild-type plants: 663 genes
[3]; in both the wild-type and mutant plants, 30 minutes after the treatment
  number of genes that responded more than 1.5 fold (P<0.05) to chitooctaose elicitation: 909 genes
[3]; out of the 909 genes, 1.5 fold, P<0.05
  number of genes with a change in transcript levels in wild-type plants: 890 genes
[4]
  induction of the selected CRGs in L. japonicus nfr1-1 and nfr5-1 mutants: did not block the induction

## chitin
[5]
  increase in transcription of At2g23770: 2 fold
  increase in transcription of At2g33580: 13 fold
  increase in transcription of At3g21630: 2 fold
Soybean LysM RLK genes
  induction of soybean LysM RLK genes: induced
Transcription factors
  number of transcription factors whose expression is enhanced by chitin treatment: over 120 transcription factors

## chitooligosaccharides
[2]; AtLysM RLK1 mutant vs wild type
  share of CRGs whose regulation is blocked by the AtLysM RLK1 mutation: ~98%
AtLysM RLK1 gene
  induction of the AtLysM RLK1 gene: induced
Alternaria brassicicola; [7]
  resistance after pretreatment, A. brassicicola: did not enhance resistance
Alternaria brassicicola; [8]
  disease symptoms (lesion size and spore production) after A. brassicicola inoculation: reduced disease symptoms
[6]; [7]
  resistance after pretreatment, P. syringae pv. tomato DC3000: did not enhance resistance
[6]; [8]
  growth of the bacterial pathogen P. syringae pv. tomato DC3000: inhibited the growth

Reference: patent publication US8558056B2, “LysM receptor-like kinases to improve plant defense response against fungal pathogens” (The Curators of the University of Missouri, priority 2006, dated 2013)
